Test: Inhibition of Bacillus anthracis edema factor-induced cytotoxicity in mouse RAW264.7 cells assessed as LDH release after 4 hrs

COC(=O)c1ccc([C@H]2Nc3ccc(C(=O)O)cc3[C@@H]3C=CC[C@H]23)cc1 [(3aS,4S,9bR)-4-(4-(methoxycarbonyl)phenyl)-3a,4,5,9b-tetrahydro-3H-cyclopenta[c]quinoline-8-carboxylic acid]
IC50: 100 µM

O=C(O)c1cccc(NC(=O)c2cccc3c2C(=O)c2ccccc2-3)c1 [3-[(9-oxo-9Hfluorene-1-carbonyl)-amino]-benzoic acid]
IC50: 1.7 µM

From BindingDB's records for doi:10.1016/j.bmc.2008.06.036 (University of Texas Medical Branch, 2008)
